Measured values: paper PMC3997483, “Aminostyrylbenzofuran Directly Reduces Oligomeric Amyloid-β and Reverses Cognitive Deficits in Alzheimer Transgenic Mice” (PLoS ONE, 2014)

System: SD rats
Assay: 2-week repeated oral dose toxicity study
Type: in vivo
Settings: for A / G ratio / ALP / ALT / AST / Albumin / B / C ratio / BUN / CHO / CK / CRE / Glucose / K^+ / LDH / Na^+ / T-Bil / TG (triglyceride) / TP: serum
Description: KMS88009 was orally administered once a day by gavage for 14 consecutive days at dose level of 0 (vehicle), 100, 300 and 1,000 mg/kg (n = 5 per group). […] Organs were collected at necropsy; adrenal, kidney, thymus, spleen, heart, lung, liver, testis and brain. The absolute organ weights were measured and the organs-to-body weight ratios were calculated. Blood samples for hematological evaluation were collected from vein of animals under ether anesthesia. Food was withheld overnight before necropsy and blood collections. EDTA was used as an anticoagulant for hematology samples. White blood cell (WBC), red blood cell (RBC), hemoglobin concentration (HGB), hematocrit (HCT), mean corpuscular volume (MCV), mean corpuscular hemoglobin (MCH), mean corpuscular hemoglobin concentration (MCHC), cell hemoglobin concentration mean (CHCM), cell hemoglobin (CH), red cell distribution width (RDW), hemoglobin distribution width (HDW), platelet count (PLT), mean platelet volume (MPV) and reticulocyte were measured by a hematological autoanalyzer (ADVIA 120, Bayer, USA). To get the serum for biochemical analyses, blood samples in a separation tube were centrifuged at 4,000 rpm for 10 min on the day of necropsy. The serum was kept frozen at -70°C until analysis. Sodium citrate was used as an anticoagulant for biochemical analyses. Serum biochemical parameters including aspartate aminotransferase (AST), alanine aminotransferase (ALT), alkaline phosphatase (ALP), total bilirubin (T-Bil), albumin, total protein (TP), albumin/globulin ratio (A/G ratio), glucose, total cholesterol (CHO), triglyceride (TG), lactate dehydrogenase (LDH), creatine kinase (CK), blood urea nitrogen (BUN), creatinine (CRE), blood urea nitrogen/creatinine ratio (B/C ratio), Na^+, K^+ and Cl^- were evaluated by an autoanalyzer (Shimadzu CL-7200, Shimadzu Co., Japan).
All data for single and 2-week repeated oral dose toxicity studies were expressed as the mean ± SD Difference between control and treated groups were evaluated with one-way analysis of variance (ANOVA) followed by Dunnett's test. Value P<0.05 was taken as being statistically significant. Statistical analyses were performed using GraphPad Prism software (USA).

[1] = rats PO 1,000 mg/kg/day, 2 weeks

COc1ccc2cc(C=Cc3ccc(N(C)C)cc3)oc2c1 [KMS88009, 6-methoxy-2-(4-dimethylaminostyryl) benzofuran]
Body weight (rats PO 300 mg/kg/day, day 11): 317.6 ± 17.0 g
Body weight (rats PO 300 mg/kg/day, day 14): 338.5 ± 16.9 g
Abnormal gross findings of necropsy (changed animals / total) [1]: 0 / 5
Basophils [1]: 0.01 ± 0.01 x10^3/μL
Body Weight (at necropsy) [1]: 319.932 ± 12.441 g
Brain weight [1]: 1.922 ± 0.009 g
CH [1]: 20.0 ± 0.5 pg
CHCM [1]: 34.1 ± 0.4 g/dL
Eosinophils [1]: 0.05 ± 0.04 x10^3/μL
HDW [1]: 2.29 ± 0.09 g/dL
Heart weight [1]: 1.074 ± 0.065 g
Hematocrit [1]: 42.1 ± 2.2%
Hemoglobin [1]: 14.0 ± 0.8 g/dL
LUC [1]: 0.06 ± 0.04 x10^3/μL
Left adrenal weight [1]: 0.025 ± 0.004 g
Left kidney weight [1]: 1.342 ± 0.067 g
Left testis weight [1]: 1.366 ± 0.053 g
Liver weight [1]: 11.173 ± 0.202 g
Lung weight [1]: 1.279 ± 0.094 g
Lympocytes [1]: 6.50 ± 3.11 x10^3/μL
MCH [1]: 19.6 ± 0.5 pg
MCHC [1]: 33.3 ± 0.6 g/dL
MCV [1]: 59.0 ± 1.0 fL
MPV [1]: 7.58 ± 0.3 fL
Monocytes [1]: 0.13 ± 0.05 x10^3/μL
Mortality (dead animals / total number of animals) [1]: 0 / 5
Neutrophils [1]: 1.08 ± 0.46 x10^3/μL
Platelet [1]: 1325 ± 141 x10^3/μL
RBC [1]: 7.14 ± 0.27 x10^6/μL
RDW [1]: 12.1 ± 0.2%
Rate body weight / brain [1]: 0.601 ± 0.024%
Rate body weight / heart [1]: 0.336 ± 0.014%
Rate body weight / left adrenal [1]: 0.008 ± 0.001%
Rate body weight / left kidney [1]: 0.420 ± 0.025%
Rate body weight / left testis [1]: 0.427 ± 0.025%
Rate body weight / liver [1]: 3.495 ± 0.093%
Rate body weight / lung [1]: 0.400 ± 0.030%
Rate body weight / right adrenal [1]: 0.008 ± 0.001%
Rate body weight / right kidney [1]: 0.418 ± 0.030%
Rate body weight / right testis [1]: 0.427 ± 0.021%
Rate body weight / spleen [1]: 0.234 ± 0.031%
Rate body weight / thymus [1]: 0.194 ± 0.017%
Retic [1]: 307.4 ± 32.8 x10^3/μL
Right adrenal weight [1]: 0.026 ± 0.003 g
Right kidney weight [1]: 1.334 ± 0.067 g
Right testis weight [1]: 1.365 ± 0.036 g
Spleen weight [1]: 0.749 ± 0.112 g
Symptomatic signs [1]: -
Thymus weight [1]: 0.621 ± 0.073 g
WBC [1]: 7.83 ± 3.64 x10^3/μL
Body weight (rats PO 1,000 mg/kg/day, day 1): 228.3 ± 6.5 g
Body weight (rats PO 1,000 mg/kg/day, day 4): 251.1 ± 8.6 g
Body weight (rats PO 1,000 mg/kg/day, day 8): 296.4 ± 14.2 g
Body weight (rats PO 1,000 mg/kg/day, day 11): 323.0 ± 15.8 g
Body weight (rats PO 1,000 mg/kg/day, day 14): 346.6 ± 16.1 g
A / G ratio (rats PO 100 mg/kg/day, 2 weeks): 0.82 ± 0.08
ALP (rats PO 100 mg/kg/day, 2 weeks): 723.4 ± 40.3 IU/L
ALT (rats PO 100 mg/kg/day, 2 weeks): 37.3 ± 6.2 IU/L
AST (rats PO 100 mg/kg/day, 2 weeks): 152.3 ± 47.1 IU/L
Albumin (rats PO 100 mg/kg/day, 2 weeks): 2.52 ± 0.18 g/dL
B / C ratio (rats PO 100 mg/kg/day, 2 weeks): 28.3 ± 6.1
BUN (rats PO 100 mg/kg/day, 2 weeks): 12.2 ± 1.5 mg/dL
CHO (rats PO 100 mg/kg/day, 2 weeks): 79.4 ± 15.2 mg/dL
CK (rats PO 100 mg/kg/day, 2 weeks): 258.4 ± 54.3 IU/L
CRE (rats PO 100 mg/kg/day, 2 weeks): 0.44 ± 0.05 mg/dL
Glucose (rats PO 100 mg/kg/day, 2 weeks): 159.2 ± 23.5 mg/dL
K^+ (rats PO 100 mg/kg/day, 2 weeks): 4.58 ± 0.43 mmol/L
LDH (rats PO 100 mg/kg/day, 2 weeks): 168.0 ± 36.4 IU/L
Na^+ (rats PO 100 mg/kg/day, 2 weeks): 140.5 ± 1.2 mmol/L
T-Bil (rats PO 100 mg/kg/day, 2 weeks): 0.01 ± 0.01 mg/dL
TG (triglyceride) (rats PO 100 mg/kg/day, 2 weeks): 47.0 ± 29.5 mg/dL
TP (rats PO 100 mg/kg/day, 2 weeks): 5.66 ± 0.17 g/dL
A / G ratio (rats PO 300 mg/kg/day, 2 weeks): 0.77 ± 0.06
ALP (rats PO 300 mg/kg/day, 2 weeks): 755.6 ± 165.7 IU/L
ALT (rats PO 300 mg/kg/day, 2 weeks): 32.9 ± 4.7 IU/L
AST (rats PO 300 mg/kg/day, 2 weeks): 149.2 ± 24.3 IU/L
Albumin (rats PO 300 mg/kg/day, 2 weeks): 2.4 ± 0.00 g/dL
B / C ratio (rats PO 300 mg/kg/day, 2 weeks): 29.6 ± 8.1
BUN (rats PO 300 mg/kg/day, 2 weeks): 12.3 ± 2.8 mg/dL
CHO (rats PO 300 mg/kg/day, 2 weeks): 81.8 ± 11.6 mg/dL
CK (rats PO 300 mg/kg/day, 2 weeks): 222.0 ± 56.7 IU/L
CRE (rats PO 300 mg/kg/day, 2 weeks): 0.42 ± 0.04 mg/dL
Glucose (rats PO 300 mg/kg/day, 2 weeks): 148.0 ± 23.5 mg/dL
K^+ (rats PO 300 mg/kg/day, 2 weeks): 4.73 ± 0.26 mmol/L
LDH (rats PO 300 mg/kg/day, 2 weeks): 127.2 ± 47.0 IU/L
Na^+ (rats PO 300 mg/kg/day, 2 weeks): 139.8 ± 1.8 mmol/L
T-Bil (rats PO 300 mg/kg/day, 2 weeks): 0.02 ± 0.01 mg/dL
TG (triglyceride) (rats PO 300 mg/kg/day, 2 weeks): 29.4 ± 7.2 mg/dL
TP (rats PO 300 mg/kg/day, 2 weeks): 5.56 ± 0.23 g/dL
A / G ratio [1]: 0.76 ± 0.04
ALP [1]: 736.0 ± 109.1 IU/L
ALT [1]: 32.7 ± 7.8 IU/L
AST [1]: 162.0 ± 19.1 IU/L
Albumin [1]: 2.44 ± 0.05 g/dL
B / C ratio [1]: 29.7 ± 2.0
BUN [1]: 11.9 ± 0.8 mg/dL
CHO [1]: 80.4 ± 18.2 mg/dL
CK [1]: 260.2 ± 62.0 IU/L
CRE [1]: 0.4 ± 0.00 mg/dL
Glucose [1]: 141.3 ± 15.6 mg/dL
K^+ [1]: 4.87 ± 0.22 mmol/L
LDH [1]: 126.0 ± 53.9 IU/L
Na^+ [1]: 140.1 ± 1.2 mmol/L
T-Bil [1]: 0.02 ± 0.01 mg/dL
TG (triglyceride) [1]: 30.8 ± 7.7 mg/dL
TP [1]: 5.62 ± 0.19 g/dL
